From publication PMC10961089, “Epidermal growth factor receptor inhibition potentiates chemotherapeutics‐mediated sensitization of metastatic breast cancer stem cells” (Cancer Reports, 2024)

Assays:
[1] = system: CD24^−/CD44^+‐breast CSCs xenotransplanted tumors; experiment: Preclinical orthotopic xenograft murine tumor model (tumor size, weight, H&E histology); assay type: in vivo, C57BL/6 mice
Method: (§1) Animal studies have been carried out with the prior approval of the Institutional Animal Ethics Committee (IICT/IAEC/025/2023). C57BL/6 female mice of age 6–8 weeks (N = 35) were initially immunosuppressed with cyclophosphamide (50 mg/kg of body weight, i.p) on alternate days for 2 weeks. For generating a preclinical orthotopic xenograft tumor model, 2 × 10^6 GFP expressing sorted stable CD24^+‐breast cancer cells and CD24^−/CD44^+‐breast CSCs were orthotopically xeno‐transplanted subcutaneously at the fourth mammary fat pad of immune‐suppressed mice (n = 5/group). Subsequently, intratumoral administration of Doxorubicin at a low dose (2.5 mg/kg of body weight), high dose (10 mg/kg of body weight), and/or combinatorial treatment of the potent EGFR inhibitor, compound 1e (50 mg/kg of body weight) or the commercial EGFR inhibitor, PD153035 (50 mg/kg of body weight) with a low dose of doxorubicin was performed to the palpable tumors of breast CSCs at day‐3 post‐transplantation.
Euthanization of mice was performed on day 14 post‐transplantation and tumor tissues were collected for histological and immunohistochemical analysis. Histological differences in tumor tissues were evaluated using hematoxylin and eosin staining (H&E).[28], [30]

[2] = system: MDA‐MB‐231; parameters: method as in PMID 28398698; conditions: unit not printed in the sentence (Table 1 in μM); read-out: IC50 against MDA‐MB‐231; cited from earlier work
[3] = system: Bax and Cytochrome‐C in MDA‐MB‐231 cells; experiment: Gene expression of apoptotic genes, semi-quantitative RT-PCR; assay type: cell-based, human; conditions: MDA-MB-231, doxorubicin + compound 5 μM, 24 h
Method: Briefly, the cells were incubated at 37°C with serum starvation followed by culturing as described above. […] Briefly, the template RNA (1 μg) was utilized for cDNA synthesis using a First‐strand cDNA synthesis kit (Thermo Scientific, USA) according to the manufacturer's protocol. Thermal cycler (Mastercycler® nexus, Eppendorf) was used for the amplification of the expression of apoptotic genes—Bax, Bcl2, Cytochrome‐C, and target gene EGFR with the help of Dream Taq DNA Polymerase PCR Master Mix (Thermo Scientific, USA) along with human gene‐specific forward and reverse primer sequences of the apoptotic genes and EGFR (Table ST1). The expression of the target genes was normalized to the Eukaryotic 18S rRNA.

[4] = system: MDA‐MB‐231; experiment: Cell migration (chemotaxis), Boyden-Chamber assay; assay type: cell-based, human; conditions: Doxorubicin 0.01 μM + compound 5 μM (PD153035 10 μM) vs 10% FBS and Doxorubicin alone
Method: (§2) TNBC cell lines—MDA‐MB‐231, MDA‐MB‐468, and the sorted CD24^+‐breast cancer cells, and CD24^−/CD44^+‐breast CSC populations from MDA‐MB‐231 [6] were seeded at a density of 1 × 10^6 cells/well to evaluate their migratory potential by Boyden‐Chamber assay. […] At the end of the treatment period, the cells were plated at a density of 5 × 10^3 cells/well in the upper chamber of the Boyden chamber assembly and 10% FBS in the lower chamber was used as a chemoattractant. Separately, the cells in the upper chamber were treated with Doxorubicin (0.01–0.1 μM) alone or with the potential EGFR inhibitors (compounds—1c, 1e, 1g, 1h, 1j, and 1k (5 μM) based on their low IC50 values) or a commercial EGFR inhibitor, PD153035 (10 μM) and incubated for 4 h followed by fixation and staining as described previously.[28], [29]

[5] = system: MDA‐MB‐468; experiment: Cell migration (chemotaxis), Boyden-Chamber assay; assay type: cell-based, human; conditions: Doxorubicin 0.01 μM + compound 5 μM (PD153035 10 μM) vs 10% FBS and Doxorubicin alone
Method: as §2

[6] = system: human CD44, ALDH1A1, Fibronectin, N‐Cadherin, Vimentin in tumor tissue; experiment: qRT-PCR of human CSC/EMT genes in tumor tissues; assay type: in vivo, C57BL/6 mice; conditions: with doxorubicin low dose vs low dose doxorubicin alone
Method: Additionally, total RNA was isolated from tumor tissues and utilized for cDNA synthesis (Thermo Scientific, Massachusetts, USA). To determine the transcriptional regulation of expression of EMT genes in tumor tissues subjected to various treatment regimes, quantitative real‐time PCR (qRT‐PCR) analysis was performed as described previously[28] using human gene‐specific forward and reverse primers of EMT genes. Amplification of Eukaryotic 18S rRNA served as an internal control and was utilized to calculate the fold change in expression.[29]
as §1

[7] = system: CD44, p‐EGFR, p‐JNK, p‐p38 in tumor tissue; experiment: Immunohistochemical analysis of tumor tissue (colocalization with GFP, Pearson's correlation coefficient); assay type: in vivo, C57BL/6 mice
Method: as §1
Immunohistochemical analysis was performed by immunostaining the tissue serial sections with primary antibodies against GFP, CD44, p‐EGFR, p‐JNK, and p‐p38 (CST, USA) followed by alexafluor‐488/555 conjugated secondary antibodies (R&D systems, USA) and mounting medium containing DAPI.[28], [29] Images were captured using a confocal microscope (Olympus FV10i, Tokyo, Japan). Pearson's correlation coefficient was utilized to determine the co‐localization of GFP/CD44, GFP/p‐EGFR, GFP/p‐JNK, and GFP/p‐p38 (Table. ST3).

[8] = system: MDA‐MB‐468; parameters: method as in PMID 28398698; conditions: unit not printed in the sentence (Table 1 in μM); read-out: IC50 against MDA‐MB‐468; cited from earlier work

SMILES: COc1cc2ncnc(Nc3cccc(Br)c3)c2cc1OC [PD153035, reference compound]
- tumorigenicity (H&E histology) ([1]; 50 mg/kg + low dose doxorubicin 2.5 mg/kg, CSC xenograft): significant decrease
- histopathological finding in tumor tissue ([1]; 50 mg/kg + low dose doxorubicin 2.5 mg/kg, CSC xenograft, day 14): neoplastic mass in the dermal region which was completely necrosed and replaced with fibrous tissue
- tumor size ([1]; intratumoral, 50 mg/kg + doxorubicin low dose 2.5 mg/kg vs low dose doxorubicin alone, CD24^−/CD44^+ CSC xenograft): significantly decreased
- IC50 [2]: 3.2 µM
- expression of pro‐apoptotic genes Bax and Cytochrome‐C [3]: marked increase
- migratory potential [4]: significant decrease
- migratory potential [5]: significant decrease
- expression level of human CD44 in tumor tissue [6]: significantly decreased
- colocalization of GFP/p‐EGFR ([7]; with doxorubicin low dose, CSC xenograft tumor tissue): decreased significantly
- activation of apoptotic signaling mediators (GFP/p‐JNK, GFP/p‐p38 colocalization) ([7]; with low dose doxorubicin, comparable with high dose doxorubicin alone): increased activation
- colocalization of GFP and CD44 (Pearson's correlation coefficient) ([7]; with low dose of doxorubicin, CSC xenograft tumor tissue): comparable to the high dose of doxorubicin treated group
- IC50 [8]: 15.4 µM
